Assay results from US12077503B2, “Substituted cyclic amides and their use as herbicides” (FMC CORPORATION, priority 2015, dated 2024).

Legend:
Format in all cases: in vivo
[1] = test system: corn (Zea mays); assay: Test A postemergence; settings: postemergence, 0 to 100 scale (0 no effect, 100 complete control)
In short: (§1)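 In a loam soil and sand blend, planted seeds got a preemergence directed soil spray, and young plants at the one- to two-leaf stage, 2–10 cm high, got a postemergence application; ~10 d greenhouse hold; injury rated visually, 0 = none, 100 = complete control.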

[2] = test system: Galium (catchweed bedstraw, Galium aparine); assay: Test A postemergence; settings: postemergence, 0 to 100 scale (0 no effect, 100 complete control)
In short: as §1

[3] = test system: Kochia (Kochia scoparia); assay: Test A postemergence; settings: postemergence, 0 to 100 scale (0 no effect, 100 complete control)
In short: as §1

[4] = test system: ryegrass, Italian (Italian ryegrass, Lolium multiflorum); assay: Test A postemergence; settings: postemergence, 0 to 100 scale (0 no effect, 100 complete control)
In short: as §1

[5] = test system: blackgrass (Alopecurus myosuroides); assay: Test A postemergence; settings: postemergence, 0 to 100 scale (0 no effect, 100 complete control)
In short: as §1

[6] = test system: giant foxtail (Setaria faberii); assay: Test A postemergence; settings: postemergence, 0 to 100 scale (0 no effect, 100 complete control)
In short: as §1

[7] = test system: barnyardgrass (Echinochloa crus-galli); assay: Test A postemergence; settings: postemergence, 0 to 100 scale (0 no effect, 100 complete control)
In short: as §1

[8] = test system: wheat (Triticum aestivum); assay: Test A postemergence; settings: postemergence, 0 to 100 scale (0 no effect, 100 complete control)
In short: as §1

[9] = test system: pigweed (Amaranthus retroflexus); assay: Test A postemergence; settings: postemergence, 0 to 100 scale (0 no effect, 100 complete control)
In short: as §1

[10] = test system: ragweed (common ragweed, Ambrosia elatior); assay: Test A postemergence; settings: postemergence, 0 to 100 scale (0 no effect, 100 complete control)
In short: as §1

[11] = test system: rice (Oryra sativa); assay: Test B flooded paddy test; settings: Flood, 250 g ai/ha; 0 to 100 scale where 0 is no effect and 100 is complete control; 13 to 15 d
In short: (§2)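 Plants at 2-leaf stage flooded to 3 cm above soil, with compounds applied directly to paddy water and that depth maintained. Plants kept in greenhouse 13–15 d. Visual rating versus controls on a 0 (no effect) to 100 (complete control) scale.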

[12] = test system: ducksalad (Heteranthera limosa); assay: Test B flooded paddy test; settings: Flood, 250 g ai/ha; 0 to 100 scale where 0 is no effect and 100 is complete control; 13 to 15 d
In short: as §2

[13] = test system: barnyardgrass (Echinochloa crus-galli); assay: Test B flooded paddy test; settings: Flood, 250 g ai/ha; 0 to 100 scale where 0 is no effect and 100 is complete control; 13 to 15 d
In short: as §2

[14] = test system: sedge, umbrella (small-flower umbrella sedge, Cyperus difformis); assay: Test B flooded paddy test; settings: Flood, 250 g ai/ha; 0 to 100 scale where 0 is no effect and 100 is complete control; 13 to 15 d
In short: as §2

[15] = test system: Kochia (Kochia scoparia); assay: Test A preemergence
In short: as §1

[16] = test system: ryegrass, Italian (Italian ryegrass, Lolium multiflorum); assay: Test A preemergence
In short: as §1

[17] = test system: giant foxtail (Setaria faberii); assay: Test A preemergence
In short: as §1

[18] = test system: barnyardgrass (Echinochloa crus-galli); assay: Test A preemergence
In short: as §1

[19] = test system: pigweed (Amaranthus retroflexus); assay: Test A preemergence
[20] = test system: ragweed (common ragweed, Ambrosia elatior); assay: Test A preemergence
In short: as §1

[21] = 125 g ai/ha, visual rating after approx. 10 d
[22] = 500 g ai/ha, visual injury, approx. 10 d
[23] = 125 g ai/ha, Preemergence, visual injury after approximately 10 d, 0 to 100 scale where 0 is no effect and 100 is complete control
[24] = 500 g ai/ha, preemergence, 0 to 100 scale, 0 = no effect, 100 = complete control

CN1CC(c2cc(F)cc(F)c2)C(C(=O)Nc2cccc(F)c2F)C1=O (stereo not drawn) [Compound 644]
85: Plant response rating, Barnyardgrass [13]
30: Plant response rating, Pigweed [9, 22]
98: Plant response rating, Ducksalad [12]
90: Plant response rating, Foxtail, Giant [6, 21] | Plant response rating, Foxtail, Giant [6, 22] | Plant response rating, Barnyardgrass [7, 21] | Plant response rating, Barnyardgrass [7, 22] | Plant response rating, Ryegrass, Italian [16, 24] | Plant response rating, Foxtail, Giant [17, 23] | Plant response rating, Foxtail, Giant [17, 24] | Plant response rating, Barnyardgrass [18, 23] | Plant response rating, Barnyardgrass [18, 24]
60: Plant response rating, Galium [2, 22] | Plant response rating, Blackgrass [5, 21] | Plant response rating, Ryegrass, Italian [16, 23] | Plant response rating, Pigweed [19, 23] | Plant response rating, Ragweed [20, 24]
0: Plant response rating, Ragweed [10, 21] | Plant response rating, Sedge, Umbrella [14]
50: Plant response rating, Galium [2, 21] | Plant response rating, Ryegrass, Italian [4, 21] | Plant response rating, Wheat [8, 21] | Plant response rating, Kochia [15, 23] | Plant response rating, Ragweed [20, 23]
70: Plant response rating, Corn [1, 21] | Plant response rating, Kochia [3, 22] | Plant response rating, Blackgrass [5, 22] | Plant response rating, Pigweed [19, 24]
20: Plant response rating, Kochia [3, 21] | Plant response rating, Pigweed [9, 21]
15: Plant response rating, Rice [11]
80: Plant response rating, Corn [1, 22] | Plant response rating, Ryegrass, Italian [4, 22] | Plant response rating, Wheat [8, 22] | Plant response rating, Kochia [15, 24]
40: Plant response rating, Ragweed [10, 22]

CC(C)Oc1cccc(C2CN(C)C(=O)C2C(=O)Nc2cccc(F)c2F)c1 (stereo not drawn) [Compound 651]
80: Plant response rating, Corn [1, 21] | Plant response rating, Foxtail, Giant [6, 21] | Plant response rating, Foxtail, Giant [6, 22]
60: Plant response rating, Galium [2, 21] | Plant response rating, Galium [2, 22] | Plant response rating, Blackgrass [5, 21] | Plant response rating, Wheat [8, 22] | Plant response rating, Barnyardgrass [13] | Plant response rating, Kochia [15, 23]
30: Plant response rating, Pigweed [9, 22]
90: Plant response rating, Corn [1, 22] | Plant response rating, Barnyardgrass [7, 21] | Plant response rating, Barnyardgrass [7, 22] | Plant response rating, Ryegrass, Italian [16, 23] | Plant response rating, Ryegrass, Italian [16, 24] | Plant response rating, Foxtail, Giant [17, 23] | Plant response rating, Barnyardgrass [18, 23] | Plant response rating, Barnyardgrass [18, 24] | Plant response rating, Ragweed [20, 24]
50: Plant response rating, Ryegrass, Italian [4, 21] | Plant response rating, Ragweed [20, 23]
20: Plant response rating, Ragweed [10, 22]
100: Plant response rating, Ducksalad [12] | Plant response rating, Foxtail, Giant [17, 24] | Plant response rating, Pigweed [19, 24]
70: Plant response rating, Ryegrass, Italian [4, 22] | Plant response rating, Blackgrass [5, 22] | Plant response rating, Kochia [15, 24]
40: Plant response rating, Kochia [3, 22] | Plant response rating, Wheat [8, 21] | Plant response rating, Pigweed [19, 23]
0: Plant response rating, Kochia [3, 21] | Plant response rating, Pigweed [9, 21] | Plant response rating, Ragweed [10, 21] | Plant response rating, Rice [11] | Plant response rating, Sedge, Umbrella [14]
